Laboratory results reported in US9169234B2, “Sepiapterin reductase inhibitors for the treatment of pain” (Children's Medical Center Corporation, priority 2009, dated 2015).
Read-outs that look alike come from different tables or passages of the source.

Target: recombinant human SPR (Sepiapterin Reductase) (Homo sapiens (Human), UniProt P35270)
Experiment: SPR inhibition biochemical assay with chromogenic (OD at 420 nm) and LC/MS (L-biopterin formation) read-out
Procedure: The compounds described herein were screened for activity as inhibitors of Sepiapterin Reductase (SPR).
Bacteria were grown at 37° C., and expression of SPR protein was induced for 4 hours.
To screen for SPR inhibition, a biochemical assay based on LC/MS (and chromogenic) read-out has been developed. The LC/MS assay monitors the product formation (L-biopterin) and the chromogenic assay measures OD at 420 nm.
N-methoxyacetyl serotonin was used as a reference compound (positive control).
The exemplary assay protocol uses the following conditions: SPR (6 nM); L-Sepiapterin (50 μM); NADPH (100 μM); Na-Phosphate buffer, pH 6.5 (100 mM); 82 μL assay volume; 60 minutes incubation with compounds (0.5% final concentration in DMSO) at 37° C. in Greiner μClear® 384 well plates.
For example, the compounds of Table 1 were screened using this additional method in triplicate.

[1] = LC/MS read-out, L-biopterin product formation, SPR 6 nM, L-Sepiapterin 50 μM, NADPH 100 μM, pH 6.5, 60 minutes at 37° C., read-out: IC50 LC/MS
[2] = chromogenic read-out, OD at 420 nm, SPR 6 nM, L-Sepiapterin 50 μM, NADPH 100 μM, pH 6.5, 60 minutes at 37° C., read-out: IC50 chromogenic

Chain of recombinant human SPR (Sepiapterin Reductase) (P35270 whole entry): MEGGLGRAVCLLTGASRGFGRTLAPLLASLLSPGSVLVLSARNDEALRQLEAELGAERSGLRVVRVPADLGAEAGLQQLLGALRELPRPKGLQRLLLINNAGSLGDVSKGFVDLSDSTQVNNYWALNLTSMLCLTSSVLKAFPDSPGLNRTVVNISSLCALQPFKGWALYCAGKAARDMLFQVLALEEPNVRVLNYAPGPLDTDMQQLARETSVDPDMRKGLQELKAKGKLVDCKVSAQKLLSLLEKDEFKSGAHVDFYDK

Row | IC50 [1] | IC50 [2] | IC50 (reference compound (positive control), read-out not specified, read-out: IC50 measured using the screening conditions) | Compound
1 | 330 nM | 400 nM | – | CC(C)C(=O)NCCc1c[nH]c2ccc(O)cc12 [(1)]
2 | 340 nM | 360 nM | – | O=C(NCCc1c[nH]c2ccc(O)cc12)C1CC1 [(2)]
3 | 2200 nM | 2800 nM | – | CCOCC(=O)NCCc1c[nH]c2ccc(O)cc12 [(3)]
4 | 1600 nM | 2100 nM | – | Oc1ccc2[nH]cc(CCNc3cccnc3)c2c1 [(12)]
5 | 2800 nM | 3400 nM | – | COCC(=O)NCCc1c[nH]c2ccc(F)cc12 [(16)]
6 | 3200 nM | 4500 nM | – | COCC(=O)NCCc1c[nH]c2ccc(S(C)(=O)=O)cc12 [(17)]
7 | 86 nM | 84 nM | – | COCC(=O)NCCc1cn(C)c2ccc(O)cc12 [(21)]
8 | 310 nM | 310 nM | – | COCC(=O)NCC(=O)c1c[nH]c2ccc(O)cc12 [(24)]
9 | 69 nM | 64 nM | – | COCC(=O)NCCc1cccc(O)c1 [(32)]
10 | 43 nM | 42 nM | 20 to 40 nM | COCC(=O)NCCc1c[nH]c2ccc(O)cc12 [N-Methoxyacetyl-Serotonin, reference compound]
